One may read the IC50 as the point on the concentration scale where inhibition reaches its midpoint.

Where two headings read alike, the source gives them in different places.

One assay deals with PSA. Description: Screening SSIA by homogeneous PSA immunoassay (anti-PSA-AK1 + anti-PSA-HRP). Type of assay: biochemical, human. The procedure: This example presents one method used for testing of candidate compounds for functionality as SSIA in assays of the present disclosure. Testing was conducted in a model screening immunoassay of the protein PSA. Tests were run using a 96-well microtiter plate format. A solution containing 30 μL of mouse anti-PSA-AK1 (66 ng), 30 μL of mouse anti-PSA-HRP conjugate (7.8 ng), 36 μL of human female serum, and 24 μL of PSA calibrator were pipetted into each well. The plate was incubated at 37° C. for 10 minutes. A 5 μL aliquot of the test compound (various concentrations) was added to each well. Chemiluminescence was triggered by the addition of 100 μL of a solution of a trigger solution whose composition is listed below. The chemiluminescent flash was integrated for 5 seconds after the addition of the trigger solution using a Luminoskan Asent® plate luminometer, (Thermo Fischer Scientific, Inc., Waltham, Mass.).
It is desirable that the improvement factor be at least 2 (S5/S0≧ about 20-30) and more desirable that improvement factor be at least 5 (S5/S0≧ about 50), yet more desirable that S5/S0 be ≧100 in the present screen.

A further assay deals with biotinylated HRP. Description: Model system for selection of SSIA (AK1/streptavidin BSA microparticles + biotinylated HRP). It counts as biochemical, horseradish. The conditions noted are these: SSIA 100 μM final. The gist of the method:
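Streptavidin/AK1/biotin-BSA M280 microparticles mixed with candidate SSIA (100 μM final) and Btn-HRP at 0, 1, 10, 100 or 250 ng/mL, with unlabeled HRP to 500 ng/mL total HRP. After 30 min at 37° C, trigger solution was added and light intensity recorded on a modified DxI analyzer.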

A further assay relates to Rabbit anti cAMP. From the text: There are provided homogeneous immunoassays of an analyte utilizing a chemiluminescent-labeled capture antibody in combination with labeled analyte in a competitive immunoassay reaction. The example analyte cyclic-AMP (“cAMP”) is conjugated with HRP to provide a cAMP-HRP reagent, which competes for analyte cAMP at the capture antibody (“Capture Ab”) which is conjugated with AK5 to form a capture antibody-AK5 complex. […] Analyte (cAMP) which is not conjugated with HRP competes for the […], and upon addition of trigger solution the resulting capture antibody-AK5-cAMP complex provides no chemiluminescence (i.e., “No Light”). Accordingly, analyte cAMP competes for capture antibody-AK5 complex and thereby suppresses signal due to the capture antibody-AK1-cAMP-HRP complex.
Rabbit anti cAMP (IMMUNOTECH, Marseille) 0.1 mg (20.3 uL from 4.93 mg/mL stock) was added to 162 uL of 0.1 M sodium borate pH 8.25 buffer in 1.7 mL centrifuge tube. 17.6 ug of AK5 (17.6 ul from 1 mg/mL stock of DMF) was added. After quick vortex mixing tube was placed on a rotating shaker for 1 hour at room temperature. Reaction was quenched by adding 1.2 uL of L-lysine from 3 mg/mL stock. Reaction mixture was diluted (1:1) in 0.4% BSA and PBS and stored at 4 C. cAMP-HRP was prepared according to the literature. […] A 30 nM stock of cAMP was prepared in PBS and further diluted in PBS to make sample calibrators for the assay.
The competitive immunoassay protocol was as follows. AK5 labeled monoclonal Rabbit anti cAMP (0.275 ug/mL) (3 uL), HRP labeled cAMP (0.09375 ug/mL) (3 ul) and cAMP calibrators (4 ul) were added into a white polystyrene 384 low volume plate. Conjugate solutions were 0.2% in BSA. After incubation of 30 minutes at room temperature, 1 ul of 2-aminophenol (0.6875 mM) was added followed by a trigger solution (10 ul). The trigger solution contained 25 mM Tris pH 8, 8 mM p-hydroxycinnamic acid, 1 mM EDTA, 0.2% Tween-20 and 0.1 M ureaperoxide. Light intensity was measured (Spectromax) for one second immediately upon injection of trigger. Reactants were not exposed to light during incubation and were not shaken.

[1] abbreviates: test compound final conc. […] ([…]), S5 = 129 ng PSA/mL vs zero PSA.
The mark [2] stands for this setting: test compound final conc. 0.244 mM (244 uM).

For `Cc1cc(CO)c(O)c(CO)c1`, the S5/S0 in the assay on PSA (setting [1]) was found to be 23.

For the molecule `COc1cc(C(C)(C)C)c(O)c(C(C)(C)C)c1`, the S5/S0 with PSA (setting [1]) is 19.

Regarding `Oc1ccc([C@@H]2Oc3cc(O)c(O)cc3C[C@@H]2O)cc1O`, the S5/S0 in the assay on PSA (setting [1]) worked out at 323. With `O=c1cc(O)c2ccccc2o1`, the S5/S0 in the assay with PSA (setting [1]) was found to be 17. With `O=c1ccc2cc(O)c(O)cc2o1`, in the assay on PSA (setting [1]), the S5/S0 was 105. The same measure, in the same setting: with `O=c1c(O)c(-c2ccccc2)oc2ccccc12` the figure was 13; with `Nc1ncccc1O`, 32.

As for `COc1ccccc1N`, the S5/S0 in the assay with PSA (setting [1]) worked out at 7.

For `COC1=C(O)C(=O)O[C@@H]1[C@@H](O)CO`, the S5/S0 with PSA (setting [1]) was found to be 16.

For `O=C1O[C@H]([C@@H](O)CO)C(=O)C1=O`, the S5/S0 in the assay on PSA (setting [1]) worked out at 26.

Consider `O=c1c(O)c(-c2ccccc2)oc2cc(O)ccc12`, for which the S5/S0 in the assay on PSA (setting [1]) worked out at 14. Take `O=c1c(O)c(-c2ccccc2)oc2ccc(O)cc12`: the S5/S0 in the assay with PSA (setting [1]) came to 9. Regarding `Nc1c(O)cc(S(=O)(=O)O)c2ccccc12`, in the assay on PSA (setting [1]), the S5/S0 was determined as 65. `O=C(O)c1cc(O)c2ccccc2n1`: the S5/S0 in the assay on PSA (setting [1]) was 6. The same measure, in the same setting: then `c1ccc2c(c1)Cc1ccccc1O2`, with 4; and `O=c1c2ccccc2[nH]c2ccccc12`, with 14.

For `Nc1ccccc1B(O)O`, the S5/S0 with PSA (setting [1]) is 108. As for `Oc1cccnc1O`, the S5/S0 in the assay with PSA (setting [1]) was determined as 41.

For the molecule `O=C(O)/C(O)=C(/O)C(=O)O`, the S5/S0 in the assay on PSA (setting [1]) is listed as 30.

Regarding `O=C(O)c1cccc(O)c1O`, in the assay with PSA (setting [1]), the S5/S0 turned out to be 22. Regarding `c1ccc2c(c1)Cc1ccccc1S2`, the S5/S0 with PSA (setting [1]) turned out to be 9.

For the molecule `O=C(O)C1c2ccccc2Oc2ccccc21`, the S5/S0 in the assay on PSA (setting [1]) is on record as 7. Still for that read-out and setting: with `O=C(c1ccccc1)C1c2ccccc2Nc2ccccc21` the figure was 9. On to `O[C@@H](CS)[C@@H](O)CS` [DTT], for which the S5/S0 in the assay with PSA (test compound final conc. 72 uM) is recorded as 20. On to `OCCO` [Ethylene glycol], for which, in the assay on PSA, the S5/S0 stood at 14. Regarding `N[C@@H](CCC(=O)N[C@@H](CS)C(=O)NCC(=O)O)C(=O)O` [Glutathione], the S5/S0 in the assay on PSA (setting [1]) stood at 77. Besides, in the assay on biotinylated HRP (Btn-HRP 0 ng/mL, total HRP 500 ng/mL), the “light intensity, BTN-HRP0” value was 26,977. Also, the S1/S0 in the assay on biotinylated HRP (Btn-HRP 1 ng/mL vs 0) came to 2.1. The “light intensity, BTN-HRP1” value in the assay on biotinylated HRP (Btn-HRP 1 ng/mL, total HRP 500 ng/mL) is reported as 55,719. Besides, in the assay on biotinylated HRP (Btn-HRP 10 ng/mL vs 0), the S2/S0 came out at 92. Moreover, in the assay with biotinylated HRP (Btn-HRP 10 ng/mL, total HRP 500 ng/mL), the “light intensity, BTN-HRP10” value is listed as 2,480,764. In the assay on biotinylated HRP (Btn-HRP 100 ng/mL vs 0), the S3/S0 is reported as 323.7. In addition, the “light intensity, BTN-HRP100” value in the assay with biotinylated HRP (Btn-HRP 100 ng/mL, total HRP 500 ng/mL) is on record as 8,733,068. Besides, the S4/S0 in the assay with biotinylated HRP (Btn-HRP 250 ng/mL vs 0) came to 369.4. Further, the “light intensity, BTN-HRP250” value with biotinylated HRP (Btn-HRP 250 ng/mL, total HRP 500 ng/mL) is 9,965,235. The “effectiveness as SSIA in the model system” value with biotinylated HRP was “insuffient effectiveness”.

Regarding `N[C@@H](CS)C(=O)O` [L-Cysteine], the S5/S0 in the assay with PSA (setting [1]) was determined as 22.

Consider `NN` [NH2NH2], for which the S5/S0 with PSA (setting [2]) is 15. `O=S([O-])[O-].[Na+].[Na+]` [Na2SO3]: the S5/S0 in the assay on PSA (test compound final conc. 15 uM) worked out at 59. With `[N-]=[N+]=[N-].[Na+]` [NaN3], the S5/S0 in the assay with PSA (test compound final conc. 34 uM) was found to be 19.

For `Cc1cc(-c2cc(C)c(N)c(C)c2)cc(C)c1N` [TMB], the S5/S0 in the assay on PSA (test compound final conc. 0.061 mM (61 uM)) is 20.

Regarding `O=C1O[C@H]([C@@H](O)CO)C([O-])=C1O.[Na+]` [ascorbate sodium salt (ascorbate anion), ascorbate sodium salt], the S5/S0 in the assay with PSA (setting [1]) turned out to be 495. For the molecule `Nc1ncnc2c1ncn2[C@@H]1O[C@@H]2COP(=O)(O)O[C@H]2[C@H]1O` [cAMP, cyclic-AMP], the “Average (light intensity)” value in the assay on Rabbit anti cAMP (cAMP 0.412 nM) was determined as 83377; with Rabbit anti cAMP (cAMP 3.7 nM) it was 31156; with Rabbit anti cAMP (cAMP 33.3 nM), 943; in the assay on Rabbit anti cAMP (cAMP 100 nM), 315; in the assay on Rabbit anti cAMP (cAMP 1000 nM) it was 173; in the assay with Rabbit anti cAMP (cAMP 10000 nM), 167. In addition, the “Signal Suppression” value with Rabbit anti cAMP (cAMP 0.412 nM) was 9%; in the assay on Rabbit anti cAMP (cAMP 3.7 nM), 66%; in the assay on Rabbit anti cAMP (cAMP 33.3 nM) it was 99%; in the assay with Rabbit anti cAMP (cAMP 100 nM) it was 100%; with Rabbit anti cAMP (cAMP 1000 nM) it was 100%; in the assay on Rabbit anti cAMP (cAMP 10000 nM), 100%. The IC50 in the assay with Rabbit anti cAMP (read-out: IC50 for cAMP, competition with cAMP-HRP at AK5-labeled antibody, 2-aminophenol as SSIA) amounted to 2.6 nM.

Turning to `c1ccc2c(c1)Nc1ccccc1O2` [drawing 87], in the assay with PSA (setting [1]), the S5/S0 was determined as 605. Turning to `O=C1O[C@H]([C@@H](O)CO)C(O)=C1O` [drawing 89], the S5/S0 in the assay on PSA (setting [1]) was found to be 423. In the case of `Nc1ccccc1O` [drawing 97], in the assay on PSA (setting [1]), the S5/S0 worked out at 649. For `Oc1ccc(Cl)cc1O` [drawing 108], the S5/S0 in the assay with PSA (setting [2]) is listed as 409.

Consider `Nc1ccc(C(=O)O)cc1O` [drawing 110], for which the S5/S0 in the assay with PSA (setting [1]) came out at 153. `O=C1O[C@H]([C@@H](O)CO)C(O)=C1O` [drawing 128]: in the assay with PSA (setting [1]), the S5/S0 was 10.3.

Source of the values: patent US9029092B2, “Solution phase homogeneous assays” (Beckman Coulter, Inc., priority 2009, dated 2015).
